Experimental data from patent publication US11149046B2, “Antibacterial sideromycins” (Hsiri Therapeutics, Inc., priority 2014, dated 2021).
≈ marks a conversion by molar mass, not a printed value. Read-outs that look alike come from different tables or passages of the source. One block for each molecule: values may come before it.

Tests used:
[1] = tested on: Pa-Da-1304 CF patient isolate; experiment: MIC determination; type: cell-based, Pseudomonas aeruginosa; conditions: for MIC: Pseudomonas aeruginosa; for susceptibility of the clinical isolate (in words): preliminary tests
Text: (§1) MIC (minimum inhibition concentration) is given in μM and AD (agar diffusion zones of inhibition are given in mm from Kirby-Bauer Petri dish growth inhibition studies).
We obtained a clinical isolate of Pseudomonas from a cystic fibrosis patient.

[2] = tested on: E. coli DC2 (permeability mutant); experiment: MIC determination; type: cell-based; conditions: Escherichia coli
Text: (§2) Table 3 that was included in the first Example 4 section provides antibacterial data for the first synthetic sideromycins we prepared and studied. The second Example 4 section elaborated and expanded on that data with inclusion of representative antibacterial data in the text and associated pictures of Petri dish assays. MIC (minimum inhibition concentration) is given in μM and AD (agar diffusion zones of inhibition are given in mm from Kirby-Bauer Petri dish growth inhibition studies).

[3] = tested on: Pseudomonas aeruginosa 01 (Pa01); experiment: MIC determination; type: cell-based; conditions: Pseudomonas aeruginosa, read-out: MIC
Text: as §2

E. coli DC0 = experiment: MIC determination; type: cell-based; conditions: Escherichia coli, DC0; Table 5; read-out: MIC
Text: as §2

[4] = tested on: P. aeruginosa KW799/61 (permeability mutant); experiment: microbe, parasite or virus in culture; type: cell-based, Pseudomonas aeruginosa; conditions: Pseudomonas aeruginosa
Text: as §1

[5] = tested on: strains of Pseudomonas and Acinetobacter; experiment: Antibacterial activity, general statements; type: cell-based; conditions: general statements of the text
Method: Antibiotic activity was determined using agar diffusion assays against representative Gram-negative bacteria, including Pseudomonas aeruginosa (Pa6), and several multidrug resistant forms of Acinetobacter baumannii. Representative results are shown in Table 1 and a corresponding picture of an actual petri dish showing the agar diffusion results (FIG. 4). […].

Pa6 = experiment: MIC determination; type: cell-based, Pseudomonas aeruginosa; conditions: Pseudomonas aeruginosa
Text: as §1

Pa4 = experiment: MIC determination; type: cell-based, Pseudomonas aeruginosa; conditions: Pseudomonas aeruginosa; Table 5
Text: as §2

P. aeruginosa KW799/wt = experiment: MIC determination; type: cell-based, Pseudomonas aeruginosa; conditions: Pseudomonas aeruginosa, KW799/WT
Text: as §2

A. baumannii ATCC 17961 = experiment: MIC determination; type: cell-based, Acinetobacter baumannii; conditions: Acinetobacter baumannii
Text: as §2

[6] = tested on: Acinetobacter baumannii ATCC 17961; experiment: Agar diffusion (Kirby-Bauer) assay, with and without hydrogel; type: cell-based
Text: as §2
We investigated whether the sideromycin absorbed in the gel be able to diffuse out of the gel and into the agar to effect antibacterial growth. As a control, the sideromycin alone, without gel, was added in a separate 9 mm well, as usual.
The second question was whether the sideromycin continue to be released and be able to effect bacterial growth inhibition over extended periods. Thus, additional identical agar plates were prepared and stored at 4° C. for 24, 48 and 72 hours to allow diffusion of the sideromycin (control and gel forms) into the agar before allowing the bacteria to grow in an incubator. Then after each time period, the Petri dishes were incubated at 37° C. for 20 hours to promote bacteria growth in the agar. […] The study has been extended to as long as 168 hours (one week) with retention of antibiotic effectiveness.

[7] = tested on: Pseudomonas aeruginosa KW799/wt; experiment: Agar diffusion (Kirby-Bauer) assay; type: cell-based; conditions: wild type Pseudomonas; FIG. 8, 9, 12
Text: as §2

[8] = Animal tolerability study (NOAEL) in healthy mice; type: in vivo; conditions: 24 hour study
Method: With the easily formulated sideromycin in hand, we profiled sideromycin safety in healthy mice. Thus, sideromycin YML-I-115 was tested in healthy mice to determine its No-observed-adverse-effect level (NOAEL). We dosed the mice with YML-I-115 (the sodium salt) at 1 mg/kg, 20 mg/kg, 50 mg/kg, and 100 mg/kg through IV injection of the compound. […] Higher dosage animal experiments have been scheduled to determine the upper limit of the NOAEL value.

Acinetobacter = experiment: Murine Survival Experiment with Acinetobacter; type: in vivo; conditions: 50 mg/kg IV at +30 min and +4 hr
Method: In vivo data for murine survival with Acinetobacter is shown in Table 9 below and graphically in FIG. 14. In the experiments, 10^8 Acinetobacter was administered IP at time 0 on Day 1, and antibiotic was administered twice IV at +30 min and +4 hr

[9] = ATCC17961, Table 5, head prints A. baumannii only, read-out: MIC
[10] = ATCC17961, Table 7, read-out: MIC

Structure (SMILES): CC(=O)Oc1cccc(C(=O)N(CCCCNC(=O)c2cccc(OC(C)=O)c2OC(C)=O)CC(=O)N[C@H](C(=O)N[C@@H]2C(=O)N3C(C(=O)O)=C(Cl)CC[C@H]23)c2ccccc2)c1O [YML-I-57]
MIC ([1]; Table 5): > 100 µM
MIC [2]: 0.006 µM (≈ 0.00526 µg/mL)
MIC ([3]; Table 5): 0.78 µM (≈ 0.683 µg/mL)
MIC (E. coli DC0): 0.006 µM (≈ 0.00526 µg/mL)
MIC [4]: 0.125 µM (≈ 0.11 µg/mL)
antibacterial activity (in words) [5]: comparable to the fully acetylated version, YML-1-45
MIC (Pa6; Table 5, read-out: MIC): 1.56 µM (≈ 1.37 µg/mL)
MIC (Pa4): 12 µM (≈ 10.5 µg/mL)
MIC (P. aeruginosa KW799/wt; Table 5, read-out: MIC): 0.025 µM (≈ 0.0219 µg/mL)
MIC (A. baumannii ATCC 17961; [9]): 0.02 to 0.0625 µM (≈ 0.0175 to 0.0548 µg/mL)

MIC ([1]; Table 5): > 100 µM
MIC ([3]; Table 5): 1.5 µM (≈ 1.13 µg/mL)
MIC (Pa6; Table 5, read-out: MIC): 6 µM (≈ 4.5 µg/mL)
MIC (Pa4): 12 µM (≈ 9 µg/mL)
MIC (P. aeruginosa KW799/wt; Table 5, read-out: MIC): 0.025 µM (≈ 0.0188 µg/mL)
MIC (A. baumannii ATCC 17961; [9]): 0.03 to 0.06 µM (≈ 0.0225 to 0.045 µg/mL)
MIC (A. baumannii ATCC 17961; [10]): 0.1 µM (≈ 0.075 µg/mL)
Structure (SMILES): O=C(CN(CCCCNC(=O)c1cccc(O)c1O)C(=O)c1cccc(O)c1O)N[C@H](C(=O)N[C@@H]1C(=O)N2C(C(=O)O)=C(Cl)CC[C@H]12)c1ccccc1 [YML-I-60]
growth inhibition with hydrogel / multi-day diffusion (in words) ([6]; plates stored at 4° C. for 24, 48 and 72 hours, then 37° C., or gel streaked on inoculated dish): zones of inhibition increased dramatically after each day

Structure (SMILES): CC(=O)Oc1cccc(C(=O)NCCCCN(CC(=O)N[C@@H](C(=O)N[C@@H]2C(=O)N3C2SC(C)(C)[C@@H]3C(=O)O)c2ccccc2)C(=O)c2cccc(O)c2O)c1OC(C)=O (some centres unmarked) [YML-I-62]
MIC ([1]; Table 5): 0.78 µM (≈ 0.65 µg/mL)
MIC ([1]; clinical isolate from a cystic fibrosis patient): 0.4 to 0.75 µM (≈ 0.334 to 0.625 µg/mL)
MIC ([3]; Table 5): 0.0156 µM (≈ 0.013 µg/mL)
MIC [4]: 0.0078 µM (≈ 0.0065 µg/mL)
MIC (Pa6; beta-lactamase producer strain, read-out: MIC): > 100 µM
MIC (Pa6; in the presence of potassium clavulanate, read-out: MIC with added beta-lactamase inhibitor): 0.0625 µM
MIC (Pa4): 0.0156 µM (≈ 0.013 µg/mL)
MIC (P. aeruginosa KW799/wt; Table 5, read-out: MIC): 0.0156 µM (≈ 0.013 µg/mL)
MIC (A. baumannii ATCC 17961; [9]): 0.25 µM (≈ 0.208 µg/mL)
MIC (A. baumannii ATCC 17961; [10]): 0.25 µM (≈ 0.208 µg/mL)
zones of inhibition (in words) [7]: potently active

Structure (SMILES): O=C(CN(CCCCNC(=O)c1cccc(O)c1O)C(=O)c1cccc(O)c1O)NC(C(=O)NC1C(=O)N2C(C(=O)[O-])=C(Cl)CCC12)c1ccccc1.[Na+] (centres unmarked) [YML-I-115]
survival and behavior (in words) ([8]; 1, 20, 50 and 100 mg/kg IV): All the mice survived and none of the mice experienced abnormal behavior
No-observed-adverse-effect level (NOAEL) ([8]; healthy mice, IV injection): 100 mg/kg
murine survival (surviving mice) (Acinetobacter; D 1, 10^8 Acinetobacter IP): 6
murine survival (surviving mice) (Acinetobacter; D 2): 6
murine survival (surviving mice) (Acinetobacter; D 3): 6
murine survival (surviving mice) (Acinetobacter; D 4): 6
murine survival (surviving mice) (Acinetobacter; D 5): 6
murine survival (surviving mice) (Acinetobacter; D 6): 6
murine survival (surviving mice) (Acinetobacter; D 7): 6

Structure (SMILES): CC1(C)S[C@@H]2[C@H](NC(=O)[C@H](N)c3ccc(O)cc3)C(=O)N2[C@H]1C(=O)O [amoxicillin, reference compound]
susceptibility of the clinical isolate (in words) [1]: resistant

MIC ([1]; Table 5): > 200 µM
MIC ([3]; Table 7): > 200 µM
MIC ([3]; Table 5): > 200 µM
MIC (Pa6; Table 5, read-out: MIC): > 200 µM
MIC (Pa4): > 200 µM
MIC (P. aeruginosa KW799/wt; Table 5, read-out: MIC): 200 µM (≈ 69.9 µg/mL)
MIC (P. aeruginosa KW799/wt; iron deficient media, read-out: MIC in Fe(−)MHII Media): 250 µM (≈ 87.4 µg/mL)
MIC (A. baumannii ATCC 17961; [9]): > 200 µM
MIC (A. baumannii ATCC 17961; [10]): > 200 µM
MIC (A. baumannii ATCC 17961; ATCC17961, iron deficient media, read-out: MIC in Fe(−)MHII Media): 250 µM (≈ 87.4 µg/mL)
MIC (A. baumannii ATCC 17961; ATCC17961, text, read-out: MIC): > 250 µM
Structure (SMILES): CC1(C)S[C@@H]2[C@H](NC(=O)[C@H](N)c3ccccc3)C(=O)N2[C@H]1C(=O)O [ampicillin, reference compound]
susceptibility of the clinical isolate (in words) [1]: resistant
zones of inhibition (in words) ([6]; Acinetobacter, FIG. 8, 9, 10): inactive
zones of inhibition (in words) [7]: inactive

MIC ([3]; Table 7): > 50 µM
MIC (P. aeruginosa KW799/wt; Table 7, read-out: MIC): > 50 µM
MIC (A. baumannii ATCC 17961; [10]): > 50 µM
Structure (SMILES): N[C@@H](C(=O)N[C@@H]1C(=O)N2C(C(=O)O)=C(Cl)CS[C@H]12)c1ccccc1 [cefaclor, reference compound]
